Data as given in the SangsterLogP compilation.

Test: method code SF, from DOI: 10.1016/0360-3016(89)90899-7, PMID: 2703405
Conditions: pH 7.4

logD | SMILES
-1.4 | CC(=O)CC(=O)Nc1n[n+]([O-])c2ccccc2[n+]1[O-]
-1.1 | Nc1n[n+]([O-])c2cc(OCC(O)CO)ccc2[n+]1[O-] (stereo unspecified)
0.41 | Nc1n[n+]([O-])c2ccc(Cl)cc2[n+]1[O-]
0.2 | Cc1ccc2c(c1)[n+]([O-])nc(N)[n+]2[O-]
0 | COc1ccc2c(c1)[n+]([O-])c(N)n[n+]2[O-]
-0.4 | CC(=O)Nc1n[n+]([O-])c2cc(C)ccc2[n+]1[O-]
-0.6 | CC(=O)Nc1n[n+]([O-])c2ccccc2[n+]1[O-]
-0.3 | COc1n[n+]([O-])c2ccccc2[n+]1[O-]
-0.3 | Nc1n[n+]([O-])c2ccccc2[n+]1[O-]
-0.8 | [O-][n+]1cn[n+]([O-])c2ccccc21
0.76 | C=CCOc1ccc2c(c1)[n+]([O-])nc(N)[n+]2[O-]
